Results reported in ChEMBL document CHEMBL4311986, “Synthesis and biological evaluation of new multi-target 3-(1H-indol-3-yl)pyrrolidine-2,5-dione derivatives with potential antidepressant effect” (Eur J Med Chem, 2019).

What was measured:
[1] = system: Mus musculus; assay: Induction of hypothermia in CD-1 mouse assessed as change in body temperature at 20 mg/kg, ip measured after 120 mins by thermometric method; format: functional, organism-based
[2] = system: Mus musculus; assay: Induction of hypothermia in CD-1 mouse assessed as change in body temperature at 20 mg/kg, ip measured after 30 mins by thermometric method; format: functional, organism-based
[3] = system: Mus musculus; assay: Induction of hypothermia in CD-1 mouse assessed as change in body temperature at 10 mg/kg, ip pretreated for 60 mins with 5-HT1AR antagonist WAY100635 followed by compound treatment and measured after 30 mins by thermometric method; format: functional, organism-based
[4] = system: Mus musculus; assay: Induction of hypothermia in CD-1 mouse assessed as change in body temperature at 20 mg/kg, ip measured after 90 mins by thermometric method; format: functional, organism-based
[5] = system: Mus musculus; assay: Induction of hypothermia in CD-1 mouse assessed as change in body temperature at 5 mg/kg, ip measured after 30 mins by thermometric method; format: functional, organism-based
[6] = target: 5-hydroxytryptamine receptor 6 (Homo sapiens, UniProt P50406); assay: Displacement of [3H]-LSD from human 5-HT6 receptor expressed in HEK293 cells incubated for 1 hr by liquid scintillation counting method; format: cell-based
Chain of 5-hydroxytryptamine receptor 6 (P50406 whole entry): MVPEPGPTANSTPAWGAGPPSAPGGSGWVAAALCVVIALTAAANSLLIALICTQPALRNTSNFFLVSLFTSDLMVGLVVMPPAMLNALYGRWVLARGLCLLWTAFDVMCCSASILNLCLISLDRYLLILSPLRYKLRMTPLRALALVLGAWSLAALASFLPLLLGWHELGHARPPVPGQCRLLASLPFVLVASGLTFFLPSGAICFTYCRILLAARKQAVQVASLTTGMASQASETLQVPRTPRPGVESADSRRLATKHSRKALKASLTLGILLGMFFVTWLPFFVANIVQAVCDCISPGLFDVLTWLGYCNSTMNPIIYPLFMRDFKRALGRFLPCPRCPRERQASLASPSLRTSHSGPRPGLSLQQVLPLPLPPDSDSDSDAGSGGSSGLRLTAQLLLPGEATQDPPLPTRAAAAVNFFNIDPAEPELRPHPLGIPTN

[7] = target: Sodium-dependent serotonin transporter (Homo sapiens, UniProt P31645); assay: Displacement of [3H]-imipramine from human serotonin transporter expressed in HEK293 cells membranes incubated for 30 mins by microbeta scintillation counting analysis; format: cell membranes
Chain of Sodium-dependent serotonin transporter (P31645 whole entry): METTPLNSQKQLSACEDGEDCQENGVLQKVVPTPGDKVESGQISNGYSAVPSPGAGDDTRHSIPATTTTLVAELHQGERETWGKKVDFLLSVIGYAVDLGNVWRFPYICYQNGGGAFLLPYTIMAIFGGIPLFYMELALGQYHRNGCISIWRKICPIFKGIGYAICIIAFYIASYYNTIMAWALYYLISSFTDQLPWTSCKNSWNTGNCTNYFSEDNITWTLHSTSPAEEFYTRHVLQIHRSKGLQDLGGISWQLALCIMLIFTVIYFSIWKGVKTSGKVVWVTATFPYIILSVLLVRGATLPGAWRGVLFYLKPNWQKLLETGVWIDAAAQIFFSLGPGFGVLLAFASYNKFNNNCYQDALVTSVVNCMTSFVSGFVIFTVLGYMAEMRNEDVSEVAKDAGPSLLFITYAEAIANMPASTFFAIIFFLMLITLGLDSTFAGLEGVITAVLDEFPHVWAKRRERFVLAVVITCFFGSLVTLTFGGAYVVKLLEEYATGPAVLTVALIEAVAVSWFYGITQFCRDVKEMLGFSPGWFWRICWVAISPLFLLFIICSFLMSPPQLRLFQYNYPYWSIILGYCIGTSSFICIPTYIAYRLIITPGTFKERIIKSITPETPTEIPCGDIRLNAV

[8] = target: T1, 5-hydroxytryptamine receptor 1A (Homo sapiens, UniProt P08908); assay: biochemical
T1 sequence (P08908 whole entry): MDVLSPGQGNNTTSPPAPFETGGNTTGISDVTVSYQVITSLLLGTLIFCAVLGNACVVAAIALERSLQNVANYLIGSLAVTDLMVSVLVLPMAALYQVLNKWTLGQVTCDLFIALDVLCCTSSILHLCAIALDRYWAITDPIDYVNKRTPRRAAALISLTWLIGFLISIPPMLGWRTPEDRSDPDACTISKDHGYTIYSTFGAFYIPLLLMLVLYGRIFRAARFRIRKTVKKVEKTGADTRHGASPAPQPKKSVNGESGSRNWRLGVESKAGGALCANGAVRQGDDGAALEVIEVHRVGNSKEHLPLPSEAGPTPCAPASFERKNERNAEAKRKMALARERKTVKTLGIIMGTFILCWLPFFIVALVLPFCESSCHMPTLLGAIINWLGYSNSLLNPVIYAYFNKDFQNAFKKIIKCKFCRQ

[9] = system: Mus musculus; assay: Induction of hypothermia in CD-1 mouse assessed as change in body temperature at 10 mg/kg, ip measured after 90 mins by thermometric method; format: functional, organism-based
[10] = target: 5-hydroxytryptamine receptor 7 (Homo sapiens, UniProt P34969); assay: Displacement of [3H]-5-CT from human 5HT7 receptor expressed in HEK293 cells incubated for 1 hr by liquid scintillation counting method; format: cell-based
Chain of 5-hydroxytryptamine receptor 7 (P34969 whole entry): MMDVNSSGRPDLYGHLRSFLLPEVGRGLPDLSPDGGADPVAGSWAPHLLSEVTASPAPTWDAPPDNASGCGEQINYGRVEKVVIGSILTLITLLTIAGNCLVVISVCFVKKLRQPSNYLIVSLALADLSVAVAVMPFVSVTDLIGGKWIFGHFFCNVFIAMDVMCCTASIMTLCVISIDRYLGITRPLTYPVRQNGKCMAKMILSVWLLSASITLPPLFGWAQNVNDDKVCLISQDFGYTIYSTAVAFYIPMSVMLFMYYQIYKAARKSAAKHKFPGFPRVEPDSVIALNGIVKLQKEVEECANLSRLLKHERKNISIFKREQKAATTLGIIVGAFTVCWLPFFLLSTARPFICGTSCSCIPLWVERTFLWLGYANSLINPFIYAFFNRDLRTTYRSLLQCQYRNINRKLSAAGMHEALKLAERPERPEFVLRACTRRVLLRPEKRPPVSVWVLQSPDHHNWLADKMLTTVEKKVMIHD

[11] = system: Mus musculus; assay: Induction of hypothermia in CD-1 mouse assessed as change in body temperature at 20 mg/kg, ip measured after 60 mins by thermometric method; format: functional, organism-based
[12] = system: Mus musculus; assay: Induction of hypothermia in CD-1 mouse assessed as change in body temperature at 10 mg/kg, ip measured after 60 mins by thermometric method; format: functional, organism-based
[13] = system: Mus musculus; assay: Induction of hypothermia in CD-1 mouse assessed as change in body temperature at 5 mg/kg, ip measured after 120 mins by thermometric method; format: functional, organism-based
[14] = system: Mus musculus; assay: Induction of hypothermia in CD-1 mouse assessed as change in body temperature at 10 mg/kg, ip pretreated for 30 mins with 5-HT1AR antagonist WAY100635 followed by compound treatment and measured after 30 mins by thermometric method; format: functional, organism-based
[15] = system: Mus musculus; assay: Induction of hypothermia in CD-1 mouse assessed as change in body temperature at 10 mg/kg, ip measured after 120 mins by thermometric method; format: functional, organism-based
[16] = Half life in human liver microsomes at 1 uM measured for 5 to 30 mins in presence of NADPH by LC-MS/MS analysis; format: ADME, Microsome
[17] = system: Mus musculus; assay: Induction of hypothermia in CD-1 mouse assessed as change in body temperature at 10 mg/kg, ip measured after 30 mins by thermometric method; format: functional, organism-based
[18] = system: Mus musculus; assay: Induction of hypothermia in CD-1 mouse assessed as change in body temperature at 5 mg/kg, ip measured after 90 mins by thermometric method; format: functional, organism-based
[19] = target: D(2) dopamine receptor (Homo sapiens, UniProt P14416); assay: Displacement of [3H]-raclopride from human D2L receptor expressed in HEK293 cells incubated for 1 hr by liquid scintillation counting method; format: cell-based
Chain of D(2) dopamine receptor (P14416 whole entry): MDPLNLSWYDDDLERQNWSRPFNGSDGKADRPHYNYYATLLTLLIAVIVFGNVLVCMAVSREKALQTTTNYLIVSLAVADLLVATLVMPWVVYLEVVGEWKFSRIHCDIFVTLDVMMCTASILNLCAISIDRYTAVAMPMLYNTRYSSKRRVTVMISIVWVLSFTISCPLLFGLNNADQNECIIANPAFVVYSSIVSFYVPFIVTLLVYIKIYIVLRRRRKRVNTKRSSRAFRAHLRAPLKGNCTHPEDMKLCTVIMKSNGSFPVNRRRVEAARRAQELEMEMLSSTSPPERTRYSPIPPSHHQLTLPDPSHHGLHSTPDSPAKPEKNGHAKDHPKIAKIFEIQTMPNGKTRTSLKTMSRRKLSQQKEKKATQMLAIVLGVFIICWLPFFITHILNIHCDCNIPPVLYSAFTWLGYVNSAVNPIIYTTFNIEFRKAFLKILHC

[20] = system: Mus musculus; assay: Induction of hypothermia in CD-1 mouse assessed as change in body temperature at 5 mg/kg, ip measured after 60 mins by thermometric method; format: functional, organism-based
[21] = system: Mus musculus; assay: Induction of hypothermia in CD-1 mouse assessed as change in body temperature at 15 mg/kg, ip pretreated for 30 mins with 5-HT1AR antagonist WAY100635 followed by compound treatment and measured after 30 mins by thermometric method (reference value: -0.1 to 0.1 deg C); format: functional, organism-based
[22] = system: Mus musculus; assay: Induction of hypothermia in CD-1 mouse assessed as change in body temperature at 15 mg/kg, ip measured after 90 mins by thermometric method (reference value: -0.3 to 0.3 deg C); format: functional, organism-based
[23] = system: Mus musculus; assay: Induction of hypothermia in CD-1 mouse assessed as change in body temperature at 15 mg/kg, ip measured after 120 mins by thermometric method (reference value: -0.1 to 0.3 deg C); format: functional, organism-based
[24] = system: Mus musculus; assay: Induction of hypothermia in CD-1 mouse assessed as change in body temperature at 15 mg/kg, ip pretreated for 60 mins with 5-HT1AR antagonist WAY100635 followed by compound treatment and measured after 30 mins by thermometric method (reference value: -0.1 to 0.4 deg C); format: functional, organism-based
[25] = system: Mus musculus; assay: Induction of hypothermia in CD-1 mouse assessed as change in body temperature at 15 mg/kg, ip measured after 30 mins by thermometric method (reference value: -0.2 to 0.4 deg C); format: functional, organism-based
[26] = system: Mus musculus; assay: Induction of hypothermia in CD-1 mouse assessed as change in body temperature at 15 mg/kg, ip measured after 60 mins by thermometric method (reference value: -0.2 to 0.5 deg C); format: functional, organism-based

Row | Ki [6] | Ki [7] | Ki [8] | Ki [10] | half-life at 1 µM [16] | Ki [19] | SMILES | deltaT [1] | deltaT [2] | deltaT [4] | deltaT [5] | deltaT [9] | deltaT [11] | deltaT [12] | deltaT [13] | deltaT [15] | deltaT [17] | deltaT [18] | deltaT [20] | further results
1 | 85 nM | 17.5 nM | 4.9 nM | 641 nM | 9.9 min | 62 nM | COc1ccc2[nH]cc(C3CC(=O)N(CCCCN4CCC(c5c[nH]c6ccc(F)cc56)CC4)C3=O)c2c1 (stereo not drawn) | 0.6 °C | -1.8 °C | 0.6 °C | -0.1 °C | 0.3 °C | 0.5 °C | -0.1 °C | -0.4 °C | 0.4 °C | -1.3 °C | 0.1 °C | 0.4 °C | deltaT [3]: -0.2 °C; deltaT [14]: -0.1 °C
2 |  | 221 nM | 222 nM |  |  |  | COc1ccc2[nH]cc(C3CC(=O)N(CCN4CCC(c5c[nH]c6ccc(F)cc56)CC4)C3=O)c2c1 (stereo not drawn) |  |  |  |  |  |  |  |  |  |  |  |  | 
3 |  | 63 nM | 240 nM |  |  |  | COc1ccc2[nH]cc(C3CCN(CCN4C(=O)CC(c5c[nH]c6ccc(OC)cc56)C4=O)CC3)c2c1 (stereo not drawn) |  |  |  |  |  |  |  |  |  |  |  |  | 
4 |  | 156 nM | 157 nM |  |  |  | COc1ccc2[nH]cc(C3CCN(CCCN4C(=O)CC(c5c[nH]c6ccc(F)cc56)C4=O)CC3)c2c1 (stereo not drawn) |  |  |  |  |  |  |  |  |  |  |  |  | 

Second part, the compound before the results:

Row | SMILES | Ki [6] | Ki [7] | Ki [8] | Ki [10] | half-life at 1 µM [16] | Ki [19] | deltaT [1] | deltaT [2] | deltaT [4] | deltaT [5] | deltaT [9] | deltaT [11] | deltaT [12] | deltaT [13] | deltaT [15] | deltaT [17] | deltaT [18] | deltaT [20] | further results
5 | O=C1CC(c2c[nH]c3ccc(F)cc23)C(=O)N1CCN1CCC(c2c[nH]c3ccccc23)CC1 (stereo not drawn) |  | 102 nM | 320 nM |  |  |  |  |  |  |  |  |  |  |  |  |  |  |  | 
6 | COc1ccc2[nH]cc(C3CC(=O)N(CCN4CCC(c5c[nH]c6ccccc56)CC4)C3=O)c2c1 (stereo not drawn) |  | 142 nM | 48.7 nM |  |  |  |  |  |  |  |  |  |  |  |  |  |  |  | 
7 | COc1ccc2[nH]cc(C3CCN(CCCCN4C(=O)CC(c5c[nH]c6ccc(OC)cc56)C4=O)CC3)c2c1 (stereo not drawn) | 427 nM | 308 nM | 2.3 nM | 320 nM | 9.7 min | 217 nM | -0.5 °C | -3.1 °C | -0.6 °C | 0.2 °C | 0.6 °C | -1.2 °C | 0.6 °C | 0.4 °C | 0.4 °C | -0.5 °C | 0.2 °C | 0.3 °C | deltaT [21]: 0.8 °C; deltaT [22]: 0.5 °C; deltaT [23]: 0.3 °C; deltaT [24]: 0 °C; deltaT [25]: -0.9 °C; deltaT [26]: 0.2 °C
8 | O=C1CC(c2c[nH]c3ccc(F)cc23)C(=O)N1CCCCN1CCC(c2c[nH]c3ccc(F)cc23)CC1 (stereo not drawn) | 301 nM | 32.4 nM | 7 nM | 1160 nM | 8.6 min | 19 nM | 0.5 °C | -2 °C | 0.1 °C | 0.4 °C | 0.3 °C | -0.4 °C | -0.1 °C | 0.3 °C | 0.4 °C | -1 °C | 0.4 °C | 0.2 °C | deltaT [3]: 0.4 °C; deltaT [14]: 0.4 °C
9 | COc1ccc2[nH]cc(C3CCN(CCCN4C(=O)CC(c5c[nH]c6ccc(OC)cc56)C4=O)CC3)c2c1 (stereo not drawn) |  | 111 nM | 68.7 nM |  |  |  |  |  |  |  |  |  |  |  |  |  |  |  | 
10 | O=C1CC(c2c[nH]c3ccc(F)cc23)C(=O)N1CCN1CCC(c2c[nH]c3ccc(F)cc23)CC1 (stereo not drawn) |  | 314 nM | 700 nM |  |  |  |  |  |  |  |  |  |  |  |  |  |  |  | 
11 | COc1ccc2[nH]cc(C3CC(=O)N(CCCCN4CCC(c5c[nH]c6ccccc56)CC4)C3=O)c2c1 (stereo not drawn) | 81 nM | 705 nM | 6.3 nM | 25 nM | 10.5 min | 16 nM | -0.9 °C | -2.9 °C | -1.1 °C | -0.2 °C | -0.4 °C | -1.5 °C | -0.4 °C | -0.1 °C | -0.4 °C | -1.3 °C | 0 °C | 0 °C | deltaT [3]: 0.5 °C; deltaT [14]: 0.4 °C
